Data as given in ChEMBL document CHEMBL1201862, “PubChem BioAssay data set” (2004).
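Dose response: 5 concentrations. Exposure: 48 h. Format: 96-well plates. Endpoint: linear interpolation; highest concentration if not reached. GI50 = concentration required for 50% inhibition of growth.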 Active and inactive are the calls of the source. Rule as the data show it: active = GI50 up to about 1.1 µM and inactive = higher.

Key:
Assay in all cases: inhibition of tumour cell growth, NCI panel, 48 h
[1] = system: MCF7
[2] = system: K562
[3] = system: NCI-H460
[4] = system: HCC 2998
[5] = system: MOLT-4
[6] = system: RXF 393
[7] = system: SNB-19
[8] = system: SW-620
[9] = system: OVCAR-5
[10] = system: SR
[11] = system: OVCAR-4
[12] = system: CAKI-1
[13] = system: OVCAR-3
[14] = system: NCI-H23
[15] = system: CCRF-CEM
[16] = system: UO-31
[17] = system: HT-29
[18] = system: ACHN
[19] = system: DU-145

SMILES | GI50 [1] | GI50 [2] | GI50 [3] | GI50 [4] | GI50 [5] | GI50 [6] | GI50 [7] | GI50 [8] | GI50 [9] | GI50 [10] | GI50 [11] | GI50 [12] | GI50 [13] | GI50 [14] | GI50 [15] | GI50 [16] | GI50 [17] | GI50 [18] | GI50 [19]
COc1cc(S(=O)(=O)Nc2nc(-c3ccc(/N=C/c4ccccc4O)cc3)cs2)ccc1Cl | 27.8 µM (inactive) | 30.4 µM (inactive) | 35.3 µM (inactive) | 45.5 µM (inactive) | 27.5 µM (inactive) | 34.3 µM (inactive) | 34.2 µM (inactive) | 79.8 µM (inactive) | > 100 µM (inactive) | 34.7 µM (inactive) | 45.6 µM (inactive) | 60.4 µM (inactive) | 33 µM (inactive) | 36.3 µM (inactive) | 26.5 µM (inactive) | 44.2 µM (inactive) | 44 µM (inactive) | 41.7 µM (inactive) | 69.2 µM (inactive)
CCCN1CN(c2ccccc2)C2(CCN(CCCC(=O)c3ccc(F)cc3)CC2)C1=O | 0.6 µM (active) | 16.3 µM (inactive) | 12.7 µM (inactive) | 7.82 µM (inactive) | 4.2 µM (inactive) | 16.8 µM (inactive) | 13.2 µM (inactive) | 5.15 µM (inactive) | 5.06 µM (inactive) | 16.6 µM (inactive) | 2.48 µM (inactive) | 4.61 µM (inactive) | 13.8 µM (inactive) | 4.12 µM (inactive) | 0.991 µM (active) | 11.8 µM (inactive) | 0.631 µM (active) | 2.13 µM (inactive) | 1.53 µM (inactive)
CC(C)(C)c1ccc(-n2c3nc(=O)n(-c4ccccc4C(F)(F)F)c(=O)c-3cc3ccccc32)cc1 | 15.6 µM (inactive) | 16.9 µM (inactive) | 4.25 µM (inactive) | 14.2 µM (inactive) | 17.9 µM (inactive) | 24.2 µM (inactive) | 31.8 µM (inactive) | 25.8 µM (inactive) | 20.2 µM (inactive) | 19.3 µM (inactive) | 27.5 µM (inactive) | 25.1 µM (inactive) | 13.6 µM (inactive) | 32.3 µM (inactive) | 13.3 µM (inactive) | 20.7 µM (inactive) | 8.32 µM (inactive) | 15.8 µM (inactive) | 28.1 µM (inactive)
C[C@@H](NC(=O)c1ccc(CNC(=O)/C=C/c2cccc(Oc3ccccc3)c2)cc1)c1ccccc1 | 97.1 µM (inactive) | > 100 µM (inactive) | 34.7 µM (inactive) | > 100 µM (inactive) | > 100 µM (inactive) | 2.51 µM (inactive) | 16.4 µM (inactive) | > 100 µM (inactive) | 78.9 µM (inactive) | > 100 µM (inactive) | > 100 µM (inactive) | 14.7 µM (inactive) | 72.1 µM (inactive) | > 100 µM (inactive) | > 100 µM (inactive) | 10.7 µM (inactive) | 22.6 µM (inactive) | 12.5 µM (inactive) | > 100 µM (inactive)
Cc1ccc2nc3n(c2c1)C(c1c(F)cccc1F)SC3 (stereo unspecified) | 47.1 µM (inactive) | > 100 µM (inactive) | > 100 µM (inactive) | > 100 µM (inactive) | 63.8 µM (inactive) | > 100 µM (inactive) | > 100 µM (inactive) | > 100 µM (inactive) | > 100 µM (inactive) | > 100 µM (inactive) | > 100 µM (inactive) | 19.1 µM (inactive) | > 100 µM (inactive) | > 100 µM (inactive) | > 100 µM (inactive) | > 100 µM (inactive) | > 100 µM (inactive) | > 100 µM (inactive) | > 100 µM (inactive)
CC(=O)OCC1OC(n2c3c(c(-c4ccc(Cl)cc4)c(C#N)c2=S)C(=O)CC(C)(C)C3)C(OC(C)=O)C(OC(C)=O)C1OC(C)=O (stereo unspecified) | 7.98 µM (inactive) | 3.23 µM (inactive) | 33.7 µM (inactive) | 4.68 µM (inactive) | 4.45 µM (inactive) | 7.48 µM (inactive) | > 45.4 µM (inactive) | 7.06 µM (inactive) | 35.8 µM (inactive) | 4.12 µM (inactive) | 17.8 µM (inactive) | 11.4 µM (inactive) | 32.7 µM (inactive) | 28.8 µM (inactive) | 3.95 µM (inactive) | 39.2 µM (inactive) | 15.7 µM (inactive) | 28.5 µM (inactive) | 50.9 µM (inactive)
OCC(CCc1ccccc1I)C1=CCC2(CC1)OCCO2 (stereo unspecified) | 23.3 µM (inactive) | > 100 µM (inactive) | 26.5 µM (inactive) | 20.4 µM (inactive) | 61.2 µM (inactive) | 14.9 µM (inactive) | 18.5 µM (inactive) | 23.4 µM (inactive) | 15.7 µM (inactive) | 45.6 µM (inactive) | 18.9 µM (inactive) | 24.7 µM (inactive) | 18.6 µM (inactive) | 20.5 µM (inactive) | 13.5 µM (inactive) | 17.8 µM (inactive) | 18.2 µM (inactive) | 28.7 µM (inactive) | 19.5 µM (inactive)
COC(=O)c1ccccc1/C=C1\Cc2c(C)c3c(c(C)c2C1=O)CCC3 | > 100 µM (inactive) | > 100 µM (inactive) | > 100 µM (inactive) | > 100 µM (inactive) | > 100 µM (inactive) | > 100 µM (inactive) | > 100 µM (inactive) | > 100 µM (inactive) | > 100 µM (inactive) | > 100 µM (inactive) | 30.1 µM (inactive) | > 100 µM (inactive) | > 100 µM (inactive) | > 100 µM (inactive) | > 100 µM (inactive) | > 100 µM (inactive) | > 100 µM (inactive) | > 100 µM (inactive) | > 100 µM (inactive)
NC1=Nc2ccccc2Sc2cccc(F)c21 | 65 µM (inactive) | 37.2 µM (inactive) | > 100 µM (inactive) | > 100 µM (inactive) | 37.8 µM (inactive) | 24.9 µM (inactive) | > 100 µM (inactive) | > 100 µM (inactive) | > 100 µM (inactive) | 35.1 µM (inactive) | 58.3 µM (inactive) | > 100 µM (inactive) | 44 µM (inactive) | 48.6 µM (inactive) | 25.2 µM (inactive) | 84.5 µM (inactive) | > 100 µM (inactive) | > 100 µM (inactive) | > 100 µM (inactive)
Nc1cccc(Nc2nc3ccccc3nc2NS(=O)(=O)c2ccccc2)c1 | 33.6 µM (inactive) | 21.1 µM (inactive) | 22.1 µM (inactive) | 15.9 µM (inactive) | 15.9 µM (inactive) | 18.3 µM (inactive) | 19.5 µM (inactive) | 18.4 µM (inactive) | 30.3 µM (inactive) | 20.3 µM (inactive) | 15.6 µM (inactive) | 27 µM (inactive) | 17.7 µM (inactive) | 12.9 µM (inactive) | 15.2 µM (inactive) | 16 µM (inactive) | 27.1 µM (inactive) | 27.5 µM (inactive) | 31.5 µM (inactive)
O=c1cc(CNC2CC3CCC2C3)[nH]c(=O)[nH]1 (stereo unspecified) | > 100 µM (inactive) | > 100 µM (inactive) | > 100 µM (inactive) | > 100 µM (inactive) | > 100 µM (inactive) | > 100 µM (inactive) | > 100 µM (inactive) | > 100 µM (inactive) | > 100 µM (inactive) | > 100 µM (inactive) | > 100 µM (inactive) | > 100 µM (inactive) | > 100 µM (inactive) | > 100 µM (inactive) | > 100 µM (inactive) | > 100 µM (inactive) | > 100 µM (inactive) | > 100 µM (inactive) | > 100 µM (inactive)
CC(C)(C)C1CC[C@H](O)[C@H]([C@H](O)CC2CC(=O)N(c3ccccc3)C(=O)C2)C1 (stereo partly specified) | > 100 µM (inactive) | > 100 µM (inactive) | 95.9 µM (inactive) | > 100 µM (inactive) | 99.3 µM (inactive) | > 100 µM (inactive) | > 100 µM (inactive) | > 100 µM (inactive) | > 100 µM (inactive) | > 100 µM (inactive) | > 100 µM (inactive) | > 100 µM (inactive) | > 100 µM (inactive) | 91.6 µM (inactive) | > 100 µM (inactive) | > 100 µM (inactive) | > 100 µM (inactive) | > 100 µM (inactive) | > 100 µM (inactive)
CC(=O)Nc1ccc(C2SCc3nc4ccccc4n32)cc1 (stereo unspecified) | 57 µM (inactive) | 66.8 µM (inactive) | > 100 µM (inactive) | > 100 µM (inactive) | > 100 µM (inactive) | > 100 µM (inactive) | > 100 µM (inactive) | > 100 µM (inactive) | > 100 µM (inactive) | > 77.1 µM (inactive) | 38.4 µM (inactive) | 39.2 µM (inactive) | > 100 µM (inactive) | 34.6 µM (inactive) | > 100 µM (inactive) | 44.3 µM (inactive) | > 100 µM (inactive) | 96.4 µM (inactive) | > 100 µM (inactive)
CC1(C)CCC2(C(=O)OC3OC(CO)C(O)C(O)C3O)CCC3(C)C(=CCC4C5(C)CCC(OC6OC(CO)C(O)C(O)C6O)C(C)(C)C5CCC43C)C2C1 (stereo unspecified) | 8 µM (inactive) | 9.04 µM (inactive) | 6.59 µM (inactive) | 4.01 µM (inactive) | 7.26 µM (inactive) | > 25 µM (inactive) | 8.32 µM (inactive) | 8.83 µM (inactive) | 24.1 µM (inactive) | 3.89 µM (inactive) | 11.8 µM (inactive) | > 25 µM (inactive) | > 25 µM (inactive) | 11.9 µM (inactive) | 4.51 µM (inactive) | > 25 µM (inactive) | 9.46 µM (inactive) | > 25 µM (inactive) | > 25 µM (inactive)
